What was measured:
CYP3A4 [1] = biological target: T1, CYP3A4 (Homo sapiens, UniProt P08684); settings: microsomes, 10 µM
CYP2C19 [2] = biological target: T2, CYP2C19 (Homo sapiens, UniProt P33261); settings: microsomes, 10 µM
CYP2C8 [3] = biological target: T3, CYP2C8 (Homo sapiens, UniProt P10632); test: in vitro; settings: microsomes
T3 sequence (P10632 1-490): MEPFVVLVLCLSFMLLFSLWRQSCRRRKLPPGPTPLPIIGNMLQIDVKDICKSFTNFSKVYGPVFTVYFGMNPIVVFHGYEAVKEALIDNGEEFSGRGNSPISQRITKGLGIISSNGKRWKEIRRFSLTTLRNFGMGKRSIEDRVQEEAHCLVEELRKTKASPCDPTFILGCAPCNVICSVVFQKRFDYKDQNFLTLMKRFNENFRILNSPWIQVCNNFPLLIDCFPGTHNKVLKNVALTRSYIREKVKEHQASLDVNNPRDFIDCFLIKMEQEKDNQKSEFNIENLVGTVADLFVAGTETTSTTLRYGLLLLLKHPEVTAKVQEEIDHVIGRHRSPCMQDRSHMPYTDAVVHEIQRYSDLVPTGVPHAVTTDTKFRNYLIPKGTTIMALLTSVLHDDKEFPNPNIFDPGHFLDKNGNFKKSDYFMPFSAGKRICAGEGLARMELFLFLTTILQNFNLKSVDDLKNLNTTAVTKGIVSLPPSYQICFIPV

5-HT3 = biological target: T4, 5-HT3 (Homo sapiens, UniProt P46098); test: NIMH PDSP radioligand binding displacement, 5-HT3; settings: radioligand [^3H]-LY278584
T4 sequence (P46098 24-478): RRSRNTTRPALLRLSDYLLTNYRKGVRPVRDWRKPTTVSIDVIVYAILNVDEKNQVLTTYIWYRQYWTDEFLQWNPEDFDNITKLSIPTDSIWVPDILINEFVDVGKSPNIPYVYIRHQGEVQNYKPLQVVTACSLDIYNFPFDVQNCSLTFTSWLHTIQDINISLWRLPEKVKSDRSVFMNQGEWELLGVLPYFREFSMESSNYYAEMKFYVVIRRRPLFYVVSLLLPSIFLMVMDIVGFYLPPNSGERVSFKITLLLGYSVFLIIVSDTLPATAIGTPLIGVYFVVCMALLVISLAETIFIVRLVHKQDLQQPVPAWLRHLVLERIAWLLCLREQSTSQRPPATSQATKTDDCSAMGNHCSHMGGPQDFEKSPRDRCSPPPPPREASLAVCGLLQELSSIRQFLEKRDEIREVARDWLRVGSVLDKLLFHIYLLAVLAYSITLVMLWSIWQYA
From the text: . To explore the off-target profile of the two compounds, the National Institute of Mental Health (NIMH) Psychoactive Drug Screening Program (PDSP) were utilized to assess in a broad-panel of GPCRs and monoamine transporters (Table 4). […]. [table]

[4] = Rat liver microsomal intrinsic clearance; assay type: in vitro ADME; settings: rat liver microsomes
CYP2C19 [5] = biological target: T2, CYP2C19; test: in vitro; settings: microsomes
CYP2B6 [6] = biological target: T5, CYP2B6 (Homo sapiens, UniProt P20813); test: in vitro; settings: microsomes
T5 sequence (P20813 1-491): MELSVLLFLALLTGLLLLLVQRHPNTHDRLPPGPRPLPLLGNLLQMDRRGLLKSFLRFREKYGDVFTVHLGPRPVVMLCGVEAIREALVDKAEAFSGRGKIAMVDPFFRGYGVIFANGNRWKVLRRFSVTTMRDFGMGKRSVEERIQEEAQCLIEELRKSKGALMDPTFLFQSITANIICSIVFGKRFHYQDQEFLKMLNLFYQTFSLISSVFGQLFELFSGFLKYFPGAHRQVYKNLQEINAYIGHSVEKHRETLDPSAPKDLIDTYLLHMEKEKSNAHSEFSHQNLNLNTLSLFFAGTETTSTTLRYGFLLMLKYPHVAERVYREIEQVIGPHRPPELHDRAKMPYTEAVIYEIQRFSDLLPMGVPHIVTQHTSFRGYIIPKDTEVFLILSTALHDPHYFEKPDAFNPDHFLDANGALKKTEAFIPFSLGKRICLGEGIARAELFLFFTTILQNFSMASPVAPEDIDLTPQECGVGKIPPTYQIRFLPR

CYP2B6 [7] = biological target: T5, CYP2B6; settings: microsomes, 10 µM
CYP3A4 [8] = biological target: T1, CYP3A4; test: in vitro; settings: microsomes
CYP2C9 [9] = biological target: T6, CYP2C9 (Homo sapiens, UniProt P11712); settings: microsomes, 10 µM
CYP1A2 = biological target: T7, CYP1A2 (Homo sapiens, UniProt P05177); test: Human liver microsomes P450 inhibition, CYP1A2
T7 sequence (P05177 1-516): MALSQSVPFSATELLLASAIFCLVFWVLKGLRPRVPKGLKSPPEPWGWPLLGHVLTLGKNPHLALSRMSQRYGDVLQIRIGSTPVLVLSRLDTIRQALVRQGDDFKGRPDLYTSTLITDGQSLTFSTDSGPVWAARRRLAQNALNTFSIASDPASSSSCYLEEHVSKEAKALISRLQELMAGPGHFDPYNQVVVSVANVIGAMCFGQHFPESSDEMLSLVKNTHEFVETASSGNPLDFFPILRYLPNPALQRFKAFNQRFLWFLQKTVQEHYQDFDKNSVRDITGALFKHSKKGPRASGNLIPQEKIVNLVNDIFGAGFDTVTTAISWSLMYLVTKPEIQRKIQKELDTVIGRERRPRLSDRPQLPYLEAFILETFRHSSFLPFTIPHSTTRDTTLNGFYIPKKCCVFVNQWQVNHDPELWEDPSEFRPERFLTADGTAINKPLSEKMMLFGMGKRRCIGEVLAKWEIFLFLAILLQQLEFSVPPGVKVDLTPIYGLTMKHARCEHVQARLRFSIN

CYP2C9 [10] = biological target: T6, CYP2C9; test: in vitro; settings: microsomes
CYP2D6 [11] = biological target: T8, CYP2D6 (Homo sapiens, UniProt P10635); settings: microsomes, 10 µM
CYP2C8 [12] = biological target: T3, CYP2C8; settings: microsomes, 10 µM
CYP2D6 [13] = biological target: T8, CYP2D6; test: in vitro; settings: microsomes
hMDRI-MDCKII cells = test: MDCK-MDR1 membrane permeability and efflux; assay type: in vitro ADME

T2 sequence (P33261 whole entry): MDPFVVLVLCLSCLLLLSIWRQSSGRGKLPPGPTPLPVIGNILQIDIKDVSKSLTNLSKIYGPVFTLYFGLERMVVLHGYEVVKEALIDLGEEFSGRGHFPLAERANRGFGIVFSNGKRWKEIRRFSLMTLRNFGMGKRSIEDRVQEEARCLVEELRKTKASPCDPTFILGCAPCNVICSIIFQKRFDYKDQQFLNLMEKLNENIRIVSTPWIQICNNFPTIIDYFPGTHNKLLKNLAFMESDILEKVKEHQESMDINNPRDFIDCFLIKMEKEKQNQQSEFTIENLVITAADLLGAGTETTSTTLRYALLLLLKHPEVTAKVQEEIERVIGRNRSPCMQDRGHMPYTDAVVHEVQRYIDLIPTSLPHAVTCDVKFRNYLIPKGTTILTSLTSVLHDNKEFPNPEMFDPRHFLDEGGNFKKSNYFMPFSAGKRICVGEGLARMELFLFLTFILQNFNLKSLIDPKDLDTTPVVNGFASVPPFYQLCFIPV
T1 sequence (P08684 whole entry): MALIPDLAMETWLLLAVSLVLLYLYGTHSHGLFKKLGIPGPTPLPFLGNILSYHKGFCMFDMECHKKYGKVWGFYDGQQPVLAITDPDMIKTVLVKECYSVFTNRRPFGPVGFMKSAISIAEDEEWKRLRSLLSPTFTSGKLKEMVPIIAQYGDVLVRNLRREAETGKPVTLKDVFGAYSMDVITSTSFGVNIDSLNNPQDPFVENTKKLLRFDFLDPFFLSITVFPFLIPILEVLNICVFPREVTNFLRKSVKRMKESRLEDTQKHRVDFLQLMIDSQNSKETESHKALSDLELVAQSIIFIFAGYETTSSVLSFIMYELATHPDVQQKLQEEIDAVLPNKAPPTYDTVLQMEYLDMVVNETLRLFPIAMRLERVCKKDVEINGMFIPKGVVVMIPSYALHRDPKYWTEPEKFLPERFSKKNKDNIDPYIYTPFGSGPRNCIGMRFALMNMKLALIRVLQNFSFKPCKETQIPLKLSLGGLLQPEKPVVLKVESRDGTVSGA
T6 sequence (P11712 whole entry): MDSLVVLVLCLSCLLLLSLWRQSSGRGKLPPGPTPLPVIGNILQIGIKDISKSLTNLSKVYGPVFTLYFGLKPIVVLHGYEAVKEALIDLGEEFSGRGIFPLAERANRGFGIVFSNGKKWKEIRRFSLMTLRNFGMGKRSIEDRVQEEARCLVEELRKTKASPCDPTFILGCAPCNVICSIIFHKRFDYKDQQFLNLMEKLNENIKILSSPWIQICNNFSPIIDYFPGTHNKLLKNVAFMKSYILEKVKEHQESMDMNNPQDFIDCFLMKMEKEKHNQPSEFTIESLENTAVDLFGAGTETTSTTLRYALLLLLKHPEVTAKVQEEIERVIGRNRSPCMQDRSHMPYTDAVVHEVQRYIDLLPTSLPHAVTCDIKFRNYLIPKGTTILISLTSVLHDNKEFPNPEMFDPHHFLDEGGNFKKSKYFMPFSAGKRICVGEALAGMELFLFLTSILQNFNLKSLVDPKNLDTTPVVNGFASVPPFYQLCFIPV
T8 sequence (P10635 whole entry): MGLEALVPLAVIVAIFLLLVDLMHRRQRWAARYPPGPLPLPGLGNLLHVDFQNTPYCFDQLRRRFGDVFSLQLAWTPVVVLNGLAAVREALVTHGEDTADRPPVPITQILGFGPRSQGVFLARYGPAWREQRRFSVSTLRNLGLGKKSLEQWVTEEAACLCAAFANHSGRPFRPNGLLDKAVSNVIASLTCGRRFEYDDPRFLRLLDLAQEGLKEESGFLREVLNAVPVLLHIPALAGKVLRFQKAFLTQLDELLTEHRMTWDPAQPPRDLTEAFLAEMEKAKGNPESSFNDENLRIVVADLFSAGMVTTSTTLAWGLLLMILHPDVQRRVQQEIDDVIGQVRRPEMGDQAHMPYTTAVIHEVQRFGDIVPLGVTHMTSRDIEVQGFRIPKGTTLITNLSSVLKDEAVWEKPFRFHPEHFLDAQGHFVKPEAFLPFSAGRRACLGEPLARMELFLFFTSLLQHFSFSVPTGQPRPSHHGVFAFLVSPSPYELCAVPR

- Inhibitory % CYP3A4 (midazolam) (CYP3A4 [1]): 18.72%
- Inhibitory % CYP2C19 (CYP2C19 [2]): 18.34%
- inhibition at 10 µM (CYP2C8 [3]): < 20%
- inhibition at 10 µM (5-HT3): 5.63%
- Liver microsomal clearance CLR [4]: CLR = 174.66 μL/min/mg
- inhibition at 10 µM (CYP2C19 [5]): < 20%
- inhibition at 10 µM (CYP2B6 [6]): > 50%
- Inhibitory % CYP2B6 (CYP2B6 [7]): 53.31%
- inhibition at 10 µM (CYP3A4 [8]): < 20%
- Inhibitory % CYP2C9 (CYP2C9 [9]): 21.2%
- Inhibitory % CYP1A2 (CYP1A2; 10 μM, human liver microsomes): 3.4%
- inhibition at 10 µM (CYP1A2; human, microsomes): < 20%
- inhibition at 10 µM (CYP2C9 [10]): < 20%
- Inhibitory % CYP2D6 (CYP2D6 [11]): 10.13%
- Inhibitory % CYP2C8 (CYP2C8 [12]): 11.87%
- inhibition at 10 µM (CYP2D6 [13]): < 20%
- PappB→A (hMDRI-MDCKII cells; With Pgp inhibitor): PappB→A = 4.77 × 10^−6 cm/s
- PappB→A (hMDRI-MDCKII cells; Without Pgp inhibitor): PappB→A = 3.23 × 10^−6 cm/s
SMILES: CCCCCCCC/C=C\CCCCCCCC(=O)NC(CO)(CO)CO [Compound 13, N-(1,3-dihydroxy-2-(hydroxymethyl)propan-2-yl)]

Reference: patent publication US20250230125A1 (The Board of Regents of The University of Texas System, priority 2022, published 2025)
